pIC50: −log10 of the molar value.

The test system of series [1] is Plasmodium falciparum. Put plainly: Hit confirmation in dose-response curve in NF54 nanoGlo assay, at 72h. It counts as functional, organism-based, Erythrocyte. The settings on record: Plasmodium falciparum, NF54, Erythrocyte, 72 h. Further details: timepoint 72 hour.
The test system of series [2] is Plasmodium falciparum. Put plainly: Hit confirmation in dose-response curve in NF54 pLDH assay, at 72h. It counts as functional, organism-based. Further details: timepoint 72 hour. The settings on record: NF54, Erythrocyte.
The subject of series [3] is Plasmodium falciparum. In words: Hit confirmation in dose-response curve in Dd2 pLDH assay, at 72h. The format is functional, organism-based. Also noted: timepoint 72 hour. The following applies: Dd2, Erythrocyte.
Series [4] concerns Plasmodium falciparum. Put plainly: Hit confirmation in dose-response curve in NF54 nanoGlo assay, at 12h. Also noted: timepoint 12 hour. The settings on record: Plasmodium falciparum, NF54, Erythrocyte, 12 h. It counts as functional, organism-based, Erythrocyte.
Series [5] can be described thus: Hit confirmation in dose-response curve in HepG2 cytotoxicity assay, at 72h. The following applies: human, HepG2 cells. Also noted: timepoint 72 hour. The format is toxicity, cell-based.

With `COc1ccc(CNCCC2C(C)CN(C)C(C)C2Cc2ccccc2)cc1` (stereo not given), the pIC50 is 5.78 in series [1], 5.44 in series [2], 5.58 in series [3] and 5.39 in series [4]. The compound further gave an IC50 at 72 h in series [5] above 10 µM.
As for `CCOc1ccc(-c2cc(NC(=O)c3cc(-c4cccnc4)nc4ccccc34)on2)cc1OCC`, the pIC50 was 5.72 in series [1], below 5.00 in series [2], 5.31 in series [3] and 5.57 in series [4]. Also, the IC50 at 72 h in series [5] is above 10 µM.
`Cc1ccc2nc(-c3cc4ccccc4o3)cn2c1`: the pIC50 in series [1] is 5.69; in series [2], 5.52; in series [3], 5.57; in series [4] it was below 5.00. Moreover, the IC50 at 72 h in series [5] is above 10 µM.
As to `Oc1ccc(-c2nnc(-c3ccc(O)cc3)nn2)cc1`, the pIC50 in series [1] is 5.71; in series [2], 5.25; in series [3], 5.51; in series [4] it was 5.29. The same compound gave an IC50 at 72 h in series [5] above 10 µM.
The corresponding values for `CCc1ccc(-c2cc3n(n2)C[C@@](C)(C(=O)NC2CCCCC2)N(c2cc(C)cc(C)c2)C3=O)cc1` are 5.64, 5.00, 5.12, 5.24 and above 10 µM.
The corresponding values for `CCc1c2c(=O)n(-c3nc4ccccc4s3)[nH]c2cc(=O)n1CCCN1CCOCC1` are 5.34, 5.02, below 5.00, 5.18 and above 10 µM.
Consider `CCN1C(=O)c2ccccc2N2C(=O)CC[C@@]12C(=O)Nc1cccc(OC)c1`, for which the negative logarithm of the IC50 (pIC50) in series [1] was 6.00; in series [2], 5.87; in series [3] it was 5.91; in series [4] it was 5.77. This compound gave an IC50 at 72 h in series [5] above 10 µM.
As to `COC[C@H](NCCc1cc(F)cc2c1OCOC2)C1CC1`, the pIC50 is 6.18 in series [1], 6.05 in series [2], below 5.00 in series [3] and below 5.00 in series [4]. Also, the IC50 at 72 h in series [5] was above 10 µM.
Consider `C=CCCC(CN1C[C@H]2CC=CC[C@H]2C1)Oc1ncc(F)cn1` (stereo not given in full), for which the negative-log IC50 (pIC50) is 7.75 in series [1], 7.65 in series [2], below 5.00 in series [3] and 5.13 in series [4]. This compound showed an IC50 at 72 h in series [5] above 10 µM.
The corresponding values for `CC(C)Nc1nc2nonc2n2cnnc12` are 5.71, 5.36, 5.45, 5.35 and above 10 µM.
The corresponding values for `COc1ccc(CCNc2nc(-c3ccc(OC)cc3F)c3c(N)n(-c4ccc(Cl)cc4)nc3n2)cc1` are 5.45, below 5.00, 5.18, 5.31 and above 10 µM.
Take `COc1ccc(C(=O)C[n+]2nc(CNc3ccc(Br)cc3)n3c2CCCCC3)cc1`: the pIC50 in series [1] was 6.27; in series [2], 6.12; in series [3], 6.19; in series [4], 5.02. For the same compound, the IC50 at 72 h in series [5] was above 10 µM.
`COc1ccc(-c2cc(-c3ccccc3)nc(N3CCC(C)CC3)n2)cc1`: the negative logarithm of the IC50 (pIC50) in series [1] is 5.02; in series [2] it was below 5.00; in series [3], below 5.00; in series [4] it was below 5.00. Further, the IC50 at 72 h in series [5] was above 10 µM.
On to `COc1cccc(CC(=O)N2CCc3nc(N4CCC(C)CC4)nc(Oc4ccccc4OC)c3C2)c1`, for which the pIC50 in series [1] is 5.44; in series [2], 5.00; in series [3], 5.31; in series [4], below 5.00. The compound also had an IC50 at 72 h in series [5] above 10 µM.
On the same counts, the results for `Cc1cc(-c2cc(O)cc(CC[C@H]3CCCCN3)c2)ccn1` are 6.30, 6.57, 6.57, 5.53 and above 10 µM.
On the same counts, the results for `COc1ccc(CNCc2ccc(C)cc2)cc1Cn1ccnc1` are 5.73, 5.57, 5.85, 5.54 and above 10 µM.
Consider `Clc1ccc(C[n+]2ccc(-c3nc4ccccc4o3)cc2)c(Cl)c1`, for which the negative-log IC50 (pIC50) in series [1] is 6.24; in series [2], 6.22; in series [3] it was 6.28; in series [4], below 5.00. In addition, in series [5], the IC50 at 72 h was above 10 µM.
On the same counts, the results for `CCn1ncc(CN2CC[C@@H]3C(=O)NCCCCCCN(Cc4ccncc4)[C@@H]3C2)c1C` are 5.43, 5.90, 5.44, below 5.00 and above 10 µM.
On the same counts, the results for `CCNc1nc(C)cc(Nc2ccc(NS(=O)(=O)c3c(C)noc3C)cc2)n1` are 5.57, 5.46, 5.60, 5.30 and above 10 µM.
Take `Cn1c(Cc2n[n+]3c(-c4ccccc4)cc(-c4ccccc4)nc3n2C)n[n+]2c(-c3ccccc3)cc(-c3ccccc3)nc12`: the negative logarithm of the IC50 (pIC50) in series [1] was 6.59; in series [2] it was 6.48; in series [3] it was 6.63; in series [4], 5.76. For the same compound, the IC50 at 72 h in series [5] amounted to 4.79 µM.
On the same counts, the results for `CCC(CC)C(=O)Nc1cc(C2CC2)nn1-c1nc(-c2ccccc2)cc(=O)[nH]1` are 5.67, 5.18, 5.45, below 5.00 and above 10 µM.
The corresponding values for `CC1(C)C(NCC(O)COc2ccc(F)c(F)c2)[C@@H]2CCC[C@@H]21` (stereo not given in full) are 5.75, 5.49, 5.49, 5.53 and above 10 µM.
On the same counts, the results for `Cc1c(-c2nn(-c3nc(C4CC4)cc(C(F)(F)F)n3)c(-c3cnn(C)c3C)c2Cl)cnn1C` are 5.96, below 5.00, below 5.00, 6.39 and above 10 µM.
As to `COCCCn1c(NS(=O)(=O)c2ccccc2)c(S(=O)(=O)c2ccc(C)cc2)c2nc3ccccc3nc21`, the negative-log IC50 (pIC50) in series [1] was 5.33; in series [2], below 5.00; in series [3], 5.05; in series [4], 5.21. Besides, the 50% inhibitory concentration (IC50) at 72 h in series [5] was above 10 µM.
The corresponding values for `Cc1ccc(C2c3ccsc3CCN2CCC(=O)N2CCN(C(=O)Cc3cccs3)C(C)C2)cc1` (stereo not given) are 5.05, 5.56, 4.98, below 5.00 and above 10 µM.
Turning to `CCCC[C@H](Oc1ccc(C(C)(C)CC)cc1C(C)(C)CC)C(=O)Nc1ccc(NC(=O)C(F)(F)C(F)(F)C(F)(F)F)c(O)c1`, the pIC50 in series [1] was 5.53; in series [2] it was below 5.00; in series [3], 5.43; in series [4], 5.14. The compound further came in with an IC50 at 72 h in series [5] above 10 µM.
Regarding `CC[C@@]1(C)CCCN(C(=O)Cc2c(C)noc2Cl)C1`, the pIC50 is 5.82 in series [1], 5.36 in series [2], 5.38 in series [3] and 5.39 in series [4]. The same compound showed an IC50 at 72 h in series [5] above 10 µM.

What is called pIC50 is the negative decadic logarithm of the IC50, by convention in mol/L. High values mean a low IC50, low ones a high IC50. One may read the IC50 as the midpoint of a concentration-inhibition curve. A lower IC50 goes with greater potency in that assay.

For the origin of these results see ChEMBL document CHEMBL4888484, “Replenishing the malaria drug discovery pipeline: Screening and hit evaluation of the MMV Hit Generation Library 1 (HGL1) against asexual blood stage Plasmodium falciparum ,using a nano luciferase reporter read-out” (2022).
